The results in this text go back to US20260092061A1, “COMPOUNDS FOR TARGETED PROTEIN DEGRADATION” (Amphista Therapeutics Limited, priority 2022, published 2026).

Where two headings read alike, the source gives them in different places. Where only a bound is given, the exact number is not on record here.

Assay [1] addresses T1, BRD9 (Homo sapiens, UniProt Q9H8M2).
T1 sequence (Q9H8M2 1-597): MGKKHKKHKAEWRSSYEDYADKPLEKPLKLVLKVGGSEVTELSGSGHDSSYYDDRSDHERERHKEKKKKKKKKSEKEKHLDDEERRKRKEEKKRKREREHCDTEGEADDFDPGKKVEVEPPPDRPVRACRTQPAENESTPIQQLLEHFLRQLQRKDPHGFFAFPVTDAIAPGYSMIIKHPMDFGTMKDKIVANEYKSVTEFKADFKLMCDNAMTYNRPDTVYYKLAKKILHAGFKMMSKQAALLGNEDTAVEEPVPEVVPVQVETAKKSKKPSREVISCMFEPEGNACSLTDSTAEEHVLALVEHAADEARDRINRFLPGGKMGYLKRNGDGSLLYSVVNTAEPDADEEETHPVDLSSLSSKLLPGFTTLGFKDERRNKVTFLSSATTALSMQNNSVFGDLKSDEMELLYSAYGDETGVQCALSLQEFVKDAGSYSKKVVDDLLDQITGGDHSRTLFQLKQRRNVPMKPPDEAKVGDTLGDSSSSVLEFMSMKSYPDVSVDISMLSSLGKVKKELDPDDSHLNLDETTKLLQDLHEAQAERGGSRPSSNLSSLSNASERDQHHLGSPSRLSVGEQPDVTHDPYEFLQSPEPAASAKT
Briefly: Degradation of BRD9 (IF), immunofluorescence in MV4-11 cells, 24 hours (Assay Protocol 2). Further details: A suspension of MV4-11 cells (ATCC CRL-9591) was prepared; host or cells: MV4-11. Type of assay: cell-based. In short, it runs like this:
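% BRD9 remaining, scaled between DMSO (high) and 100 nM CFT-8634 (low) control wells, derives from mean Alexa 647 contrast in central nuclei by high-content imaging. MV4-11 cells had 24 h compound exposure at 37° C. before PFA fixation, Triton permeabilisation and anti-BRD9 E4Q3F immunostaining.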

The target in assay [2] is T2, BRD7 (Homo sapiens, UniProt Q9NPI1).
T2 construct: HiBiT-BRD7 KI HEK293 (LgBiT) Cells (Promega CS3023410); host or cells: HEK293 (LgBiT), HiBiT knock-in at the BRD7 locus
T2 sequence (Q9NPI1 1-651): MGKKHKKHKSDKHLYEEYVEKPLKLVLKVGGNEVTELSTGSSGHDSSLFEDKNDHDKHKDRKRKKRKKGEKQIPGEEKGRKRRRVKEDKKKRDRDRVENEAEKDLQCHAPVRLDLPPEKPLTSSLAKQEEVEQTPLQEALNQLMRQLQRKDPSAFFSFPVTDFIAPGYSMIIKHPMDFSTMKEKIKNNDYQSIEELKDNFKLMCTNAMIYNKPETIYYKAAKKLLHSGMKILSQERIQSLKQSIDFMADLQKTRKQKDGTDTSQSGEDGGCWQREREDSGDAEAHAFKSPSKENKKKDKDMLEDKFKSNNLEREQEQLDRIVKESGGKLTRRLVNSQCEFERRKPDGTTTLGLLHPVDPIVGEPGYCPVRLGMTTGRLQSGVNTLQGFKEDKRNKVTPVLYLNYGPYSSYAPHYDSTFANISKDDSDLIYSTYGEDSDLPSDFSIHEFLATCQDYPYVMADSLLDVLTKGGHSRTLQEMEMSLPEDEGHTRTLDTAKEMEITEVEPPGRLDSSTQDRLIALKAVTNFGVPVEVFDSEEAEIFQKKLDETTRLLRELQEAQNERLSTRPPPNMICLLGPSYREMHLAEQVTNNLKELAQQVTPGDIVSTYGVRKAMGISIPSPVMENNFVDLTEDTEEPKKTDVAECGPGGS
The experiment in a line: BRD7 degradation, HiBiT-BRD7 KI HEK293 (LgBiT) cells, NanoGlo Lytic Endpoint assay (Assay Protocol 1). Type of assay: cell-based. As to conditions: for Dmax / Dmax at 1 µM: HEK293; for Dmax / DC50: Table 5, assay protocol 1; for Dmax at 1 µM: Table 3, assay 1, 1 μM compound at 5 h of treatment. The procedure: HiBiT-BRD9 KI HEK293 (LgBiT) Cells (Promega CS3023412) were seeded at 8000 cells per well (38 μL) in sterile white bottom 384 well plates (Invitrogen 164610 or Greiner 781080) and incubated overnight at 37° C. with 5% CO2. The next day, compounds were prepared at 1000× final concentration in DMSO and diluted 1:100 in media (DMEM PAN Biotech P04-03550+10% FBS ATCC 302025). […] The lytic buffer was equilibrated to room temperature for 10-15 min before lytic reagent was prepared by adding substrate (1:50) and LgBit protein (1:100) in lytic buffer. 40 μL lytic reagent mix was added to each well of the cel plate and plates were centrifuged briefly at ˜50g. Plates were incubated with shaking (350 RPM) for 12-24 min before reading using the LUM plus module of a BMG Pherastar FSX. Data was analysed using Dotmatics software and % BRD9 remaining was calculated by normalisation to average data from high and low control wells (DMSO treated cels and no cells respectively).
BRD7 degradation was determined in line with the procedure as outlined above for BRD9, with the exception that HiBiT-BRD7 KI HEK293 (LgBiT) Cells (Promega CS3023410) were seeded at 8000 cells per well (CPW) (36 uL) in sterile white bottom 384 well plates (Invitrogen 164610 or Greiner 781080) and incubated overnight at 37° C. with 5% CO2.

The mark [3] stands for this setting: MV4-11, Table 4, BRD9 degradation, determined according to Assay Protocol 2, read-out: Dmax^2.
The mark [4] stands for this setting: Table 4, BRD9 degradation, determined according to Assay Protocol 2, read-out: DC50^2.
Where [5] appears, read: MV4-11, 24 h, Table 2, BRD9 degradation (IF), Assay Protocol 2, MV4-11 cells, read-out: Assay 2 DCmax.
Setting [6] is: Table 2, BRD9 degradation (IF), Assay Protocol 2, MV4-11 cells, read-out: Assay 2 DC50.

Regarding `COc1cc(-c2cn(C)c(=O)c(C)c2C)cc(OC)c1CN1CC2CC1CN2C(=O)/C(C#N)=C/C(C)(C)C` (mixture of isomers) [BRD9b], the Dmax in assay [1] (setting [3]) was 50 to 70%; in assay [2] it was below 25%. Besides, the DC50 – broadly, the concentration giving 50% degradation – in assay [1] (setting [4]) was below 25 nM; in assay [2] it was above 1000 nM.

As to `COc1cc(-c2cn(C)c(=O)c(C)c2C)cc(OC)c1CN1CC2CC1CN2C(=O)/C(C#N)=C/c1nccs1` (mixture of isomers) [BRD9i, (E/Z)-2-(5-(2,6-dimethoxy-4-(1,4,5-trimethyl-6-oxo-1,6-dihydropyridin-3-yl)benzyl)-2,5-diazabicyclo[2.2.1]heptane-2-carbonyl)-3-(thiazol-2-yl)acrylonitrile], the DC50 in assay [1] (setting [4]) is below 25 nM. In assay [2], this compound registered a Dmax of 25 to 40% and a DC50 above 1000 nM.

On to `COc1cc(-c2cn(C)c(=O)c(C)c2C)cc(OC)c1CN1C2CC1CN(C(=O)/C(C#N)=C/c1cccc(Br)n1)C2` (mixture of isomers) [BRD9o, (E/Z)-3-(6-bromopyridin-2-yl)-2-(6-(2,6-dimethoxy-4-(1,4,5-trimethyl-6-oxo-1,6-dihydropyridin-3-yl)benzyl)-3,6-diazabicyclo[3.1.1]heptane-3-carbonyl)acrylonitrile], for which the DC50 in assay [1] (setting [4]) was 25 to 200 nM. Besides, in assay [2], the Dmax lay in the range of 25 to 40% and the DC50 was above 1000 nM.

For the compound `COc1cc(-c2cn(C)c(=O)c(C)c2C)cc(OC)c1CN1CCN(Cc2cccc3c2CCN(C(=O)/C(C#N)=C/c2nccs2)C3C)CC1` (mixture of isomers) [Compound A4, (E/Z)-2-(5-((4-(2,6-dimethoxy-4-(1,4,5-trimethyl-6-oxo-1,6-dihydropyridin-3-yl)benzyl)piperazin-1-yl)methyl)-1-methyl-1,2,3,4-tetrahydroisoquinoline-2-carbonyl)-3-(thiazol-2-yl)acrylonitrile], the Dmax in assay [1] (setting [5]) lay in the range of 70 to 75%. The DC50 in assay [1] (setting [6]) is below 1.25 nM. In addition, the Dmax at 1 µM in assay [2] is below 25%.

With `COc1cc(-c2cn(C)c(=O)c3cnccc23)cc(OC)c1CN1CCN(Cc2cccc3c2CCN(C(=O)/C(C#N)=C\c2ncc(C)s2)C3C)CC1` (mixture of isomers) [Compound A10, (E/Z)-2-(5-((4-(2,6-dimethoxy-4-(2-methyl-1-oxo-1,2-dihydro-2,7-naphthyridin-4-yl)benzyl)piperazin-1-yl)methyl)-1-methyl-1,2,3,4-tetrahydroisoquinoline-2-carbonyl)-3-(5-methylthiazol-2-yl)acrylonitrile], the Dmax in assay [1] (setting [5]) fell in the range of 40 to 70%. Further, in assay [1] (setting [6]), the DC50 is below 1.25 nM. The same compound returned a Dmax at 1 µM in assay [2] of 25 to 40%.

With `COc1cc(-c2cn(C)c(=O)c(C)c2C)cc(OC)c1CN1CCN(Cc2cccc3c2CCN(C(=O)/C(C#N)=C/c2cccc(Br)n2)C3C)CC1` (mixture of isomers) [Compound A16, (E/Z)-3-(6-bromopyridin-2-yl)-2-(5-((4-(2,6-dimethoxy-4-(1,4,5-trimethyl-6-oxo-1,6-dihydropyridin-3-yl)benzyl)piperazin-1-yl)methyl)-1-methyl-1,2,3,4-tetrahydroisoquinoline-2-carbonyl) acrylonitrile], the Dmax in assay [1] (setting [5]) was 40 to 70%. For the same compound, the DC50 in assay [1] (setting [6]) was below 1.25 nM. The compound also registered a Dmax at 1 µM in assay [2] of 25 to 40%.

For the compound `COc1cc(-c2cn(C)c(=O)c3cnccc23)cc(OC)c1CN(C)Cc1cccc2c1CCN(C(=O)/C(C#N)=C/c1cccc(Br)n1)C2C` (mixture of isomers) [Compound A50], the Dmax in assay [1] (setting [5]) was above 75%. In addition, in assay [1] (setting [6]), the DC50 lay in the range of 1.25 to 10 nM. In assay [2], this compound came in with a Dmax at 1 µM of 25 to 40%.

For `COc1cc(-c2cn(C)c(=O)c(C)c2C)cc(OC)c1CN1CCC(Oc2cccc3c2CCN(C(=O)/C(C#N)=C/c2cccc(Br)n2)C3C)CC1` (mixture of isomers) [Compound A68, (E/Z)-3-(6-bromopyridin-2-yl)-2-(5-((1-(2,6-dimethoxy-4-(1,4,5-trimethyl-6-oxo-1,6-dihydropyridin-3-yl)benzyl)piperidin-4-yl)oxy)-1-methyl-1,2,3,4-tetrahydroisoquinoline-2-carbonyl)acrylonitrile], in assay [1] (setting [5]), the Dmax is 40 to 70%. The DC50 in assay [1] (setting [6]) was below 1.25 nM. The compound also returned a Dmax at 1 µM in assay [2] below 25%.

`COc1cc(-c2cn(C)c(=O)c(C)c2C)cc(OC)c1CN1CC2CC(C1)N2Cc1cccc2c1CCN(C(=O)/C(C#N)=C/C(C)(C)C)C2C` (mixture of isomers) [Compound A71, (E/Z)-2-(5-((3-(2,6-dimethoxy-4-(1,4,5-trimethyl-6-oxo-1,6-dihydropyridin-3-yl)benzyl)-3,6-diazabicyclo[3.1.1]heptan-6-yl)methyl)-1-methyl-1,2,3,4-tetrahydroisoquinoline-2-carbonyl)-4,4-dimethylpent-2-enenitrile]: in assay [1] (setting [5]), the Dmax was above 75%. In assay [1] (setting [6]), the DC50 was below 1.25 nM. This compound displayed a Dmax at 1 µM in assay [2] of 40 to 70%.

Turning to `COc1cc(-c2cn(C)c(=O)c(C)c2C)cc(OC)c1CN1CCCN(Cc2cccc3c2CCN(C(=O)/C(C#N)=C/C(C)(C)C)C3C)CC1` (mixture of isomers) [Compound A72, (E/Z)-2-(5-((4-(2,6-dimethoxy-4-(1,4,5-trimethyl-6-oxo-1,6-dihydropyridin-3-yl)benzyl)-1,4-diazepan-1-yl)methyl)-1-methyl-1,2,3,4-tetrahydroisoquinoline-2-carbonyl)-4,4-dimethylpent-2-enenitrile], in assay [1] (setting [5]), the Dmax fell in the range of 40 to 70%. Besides, in assay [1] (setting [6]), the DC50 is 10 to 25 nM. Further, the Dmax at 1 µM in assay [2] is below 25%.

Turning to `COc1cc(-c2cn(C)c(=O)c(C)c2C)cc(OC)c1CN1CCN(C(=O)/C(C#N)=C/C(C)(C)C)CC1` [BRD9a, (E/Z)-2-(4-(2,6-dimethoxy-4-(1,4,5-trimethyl-6-oxo-1,6-dihydropyridin-3-yl)benzyl)piperazine-1-carbonyl)-4,4-dimethylpent-2-enenitrile], the Dmax in assay [1] (setting [3]) is 50 to 70%. In assay [2], the Dmax is below 25% and the DC50 is above 1000 nM.

In the case of `COc1cc(-c2cn(C)c(=O)c(C)c2C)cc(OC)c1CN(C)C(=O)/C(C#N)=C/C(C)(C)C` [BRD9ac, (E/Z)-2-cyano-N-(2,6-dimethoxy-4-(1,4,5-trimethyl-6-oxo-1,6-dihydropyridin-3-yl)benzyl)-N,4,4-trimethylpent-2-enamide], the Dmax was in the range of 50 to 70% in assay [1] (setting [3]); 40 to 70% in assay [1] (MV4-11, Table 5, cells marked *: measured in accordance with Assay Protocol 2, read-out: BRD9 Dmax (%)); 70 to 75% in assay [2]. The DC50 was 25 to 1000 nM in assay [1] (Table 5, cells marked *: measured in accordance with Assay Protocol 2, read-out: BRD9 DC50) and 25 to 1000 nM in assay [2].
